Data set [1] can be described thus: Solubility of apomorphine in phosphate buffers at varying pH (Example 14). As to conditions: stirred ~18 hours. It is filed as physicochemical. The procedure:
The testing procedure was as followings: • 1. […] The samples were stirred for ˜18 hours before analysis. • 4. […] The samples were stirred for ˜18 hours before analysis. • 5. After stirring ˜2mL of the supernatant was obtained from each vial and centrifuge at 12000 RPM to precipitate un-dissolved drug. • 6. After centrifugations, approximately 1 mL of the supernatant was diluted with approximately 50 mL of water: methanol: H3PO4 (50:50:1.2 v/v) for HPLC analysis according to the procedure described in Example 13 above.

A short description of data set [2]: Dissolution in simulated saliva media (Example 15). It is filed as physicochemical. The conditions noted are these: simulated saliva pH 6.2, 37° C., two samples per time point, hydrochloride. How it is done:
The dissolution of the composition as described in Example 5 was compared to the dissolution of USP grade apomorphine hydrochloride. The following procedure was employed to obtain the dissolution profiles: • 1.
• 3. Approximately 5 mL or 10 mL of pre-warmed simulated saliva was added to the vials of step 2 according to the table above, and a stop watch was started. The vials with the media were gently swirled to allow the powder in the vials to go into solution. • 4. At specific time points, samples of the media were withdrawn from the vials of step 3 and transferred into the barrel of a 10 mL syringe with a […] filter attached to the tip of the syringe. The solution was pushed through the filter and collected for HPLC assay according to the procedure described in Example 13 above. • 5. For sample time points longer than 5 minutes the vials of step 3 were placed in a 37° C. incubator and shaken at 50 rpms until the collection time point.

For data set [3] the following is noted: sublingual apomorphine tablets, prolonged use; cited from earlier work.
The conditions of data set [4]: subcutaneous injections, on-off fluctuations in Parkinson's disease; cited from earlier work.

≈ marks a conversion by molar mass, not a printed value. Where “and” joins values, the source holds several entries; their conditions need not be identical. Equal values may be shown once. Where a name gives a salt, the structure may show the parent alone. Read-outs that look alike come from different tables or passages of the source.

The term solubility denotes how much of the substance goes into solution per volume. Consider `CN1CCc2cccc3c2[C@H]1Cc1ccc(O)c(O)c1-3` [Apomorphine Free Base, 6αβ-aporphine-10, 11 diol], for which the solubility in data set [1] (pH 2.50 phosphate buffer, unit assumed) is 9200 µg/mL (≈ 34.4 mM); in data set [1] (pH 3.00 phosphate buffer, unit assumed) it was 3700 µg/mL (≈ 13.8 mM); in data set [1] (pH 4.00 phosphate buffer, unit assumed), 2700 µg/mL (≈ 10.1 mM); in data set [1] (pH 5.00 phosphate buffer, unit assumed), 2500 µg/mL (≈ 9.35 mM); in data set [1] (pH 6.00 phosphate buffer, unit assumed) it was 2000 µg/mL (≈ 7.48 mM); in data set [1] (pH 6.20 phosphate buffer, unit assumed) it was 1700 µg/mL (≈ 6.36 mM). In addition, the solubility in data set [1] (pH 6.40 phosphate buffer, unit assumed) came to 1700 µg/mL (≈ 6.36 mM); in data set [1] (pH 6.60 phosphate buffer, unit assumed) it was 1300 µg/mL (≈ 4.86 mM); in data set [1] (pH 6.80 phosphate buffer, unit assumed), 1200 µg/mL (≈ 4.49 mM); in data set [1] (pH 7.00 phosphate buffer, unit assumed) it was 670 µg/mL (≈ 2.51 mM); in data set [1] (pH 7.40 phosphate buffer, unit assumed) it was 400 µg/mL (≈ 1.5 mM); in data set [1] (pH 8.00 phosphate buffer, unit assumed) it was 120 µg/mL (≈ 0.449 mM).
Consider `CN1CCc2cccc3c2[C@H]1Cc1ccc(O)c(O)c1-3` [Apomorphine HCl, apomorphine hydrochloride], for which the solubility in data set [1] (pH 2.50 phosphate buffer, hydrochloride, unit assumed) came to 22800 µg/mL; in data set [1] (pH 3.00 phosphate buffer, hydrochloride, unit assumed), 21600 µg/mL; in data set [1] (pH 4.00 phosphate buffer, hydrochloride, unit assumed), 20000 µg/mL; in data set [1] (pH 5.00 phosphate buffer, hydrochloride, unit assumed), 18800 µg/mL; in data set [1] (pH 6.00 phosphate buffer, hydrochloride, unit assumed), 7400 µg/mL; in data set [1] (pH 6.20 phosphate buffer, hydrochloride, unit assumed), 7200 µg/mL. Also, the solubility amounted to 3700 µg/mL in data set [1] (pH 6.40 phosphate buffer, hydrochloride, unit assumed); 270 µg/mL in data set [1] (pH 8.00 phosphate buffer, hydrochloride, unit assumed); 1900 µg/mL in data set [1] (phosphate buffer, pH 6.6, aqueous buffer, thermodynamic from solid, pH 6.60 phosphate buffer, read-out: solubility); 1400 µg/mL in data set [1] (phosphate buffer, pH 6.8, aqueous buffer, thermodynamic from solid, pH 6.80 phosphate buffer, read-out: solubility); 1000 µg/mL in data set [1] (phosphate buffer, pH 7, aqueous buffer, thermodynamic from solid, pH 7.00 phosphate buffer, read-out: solubility); 610 µg/mL in data set [1] (phosphate buffer, pH 7.4, aqueous buffer, thermodynamic from solid, pH 7.40 phosphate buffer, read-out: solubility). The dissolution is 30.52% and 27.73% in data set [2] (0.5 min); 34.58% and 30.24% in data set [2] (1 min); 57.54% and 46.57% in data set [2] (5 min); 46.00% and 52.29% in data set [2] (10 min); 53.23% and 74.97% in data set [2] (30 min); 22.75% and 19.05% in data set [2] (Initial).
`CN1CCc2cccc3c2[C@H]1Cc1ccc(O)c(O)c1-3` [apomorphine, 6αβ-aporphine-10, 11 diol]: the “patients with buccal mucosal ulceration (severe stomatitis)” value in data set [3] is listed as “approximately 30%”. Further, in data set [4], the duration of effect is 45 to 90 min and the “time to effect after administration” value is 5 to 15 min.

The record behind these values is patent US20190365641A1, “RAPIDLY DISINTEGRATING FORMULATIONS AND METHODS OF USE” (Impax Laboratories, Inc., priority 2013, published 2019).
